Measured values: PubChem BioAssay (NCI)
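Exposure lasted 48 hours, with cells grown in 96-well plates and compounds tested at five concentrations. At the GI50, growth is halved. TGI marks complete inhibition of growth.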

Key:
Experiment in all cases: NCI tumour cell line growth inhibition, 48 h; in the data active = GI50 below about 0.43 µM; inactive = the rest
CAKI-1 renal = tested on: CAKI-1 renal
HCT-116 colon = tested on: HCT-116 colon
T-47D breast = tested on: T-47D breast
BT-549 breast = tested on: BT-549 breast
SF-295 CNS = tested on: SF-295 CNS
NCI/ADR-RES ovarian = tested on: NCI/ADR-RES ovarian
A498 renal = tested on: A498 renal
NCI-H23 lung = tested on: NCI-H23 lung
OVCAR-4 ovarian = tested on: OVCAR-4 ovarian
SR leukemia = tested on: SR leukemia
TK-10 renal = tested on: TK-10 renal
LOX IMVI melanoma = tested on: LOX IMVI melanoma
MDA-MB-231 breast = tested on: MDA-MB-231 breast
IGROV1 ovarian = tested on: IGROV1 ovarian
OVCAR-5 ovarian = tested on: OVCAR-5 ovarian
UO-31 renal = tested on: UO-31 renal
SN12C renal = tested on: SN12C renal
OVCAR-8 ovarian = tested on: OVCAR-8 ovarian
SW-620 colon = tested on: SW-620 colon
SNB-19 CNS = tested on: SNB-19 CNS
SK-MEL-5 melanoma = tested on: SK-MEL-5 melanoma
A549 NSCLC = tested on: A549 NSCLC
U251 CNS = tested on: U251 CNS
HCC-2998 colon = tested on: HCC-2998 colon
ACHN renal = tested on: ACHN renal
HL-60(TB) leukemia = tested on: HL-60(TB) leukemia
PC-3 prostate = tested on: PC-3 prostate
SNB-75 CNS = tested on: SNB-75 CNS
MCF7 breast = tested on: MCF7 breast
HS 578T breast = tested on: HS 578T breast
M14 melanoma = tested on: M14 melanoma
HOP-62 NSCLC = tested on: HOP-62 NSCLC
UACC-62 melanoma = tested on: UACC-62 melanoma
NCI-H460 lung = tested on: NCI-H460 lung
HOP-92 NSCLC = tested on: HOP-92 NSCLC
MOLT-4 leukemia = tested on: MOLT-4 leukemia
NCI-H522 lung = tested on: NCI-H522 lung
SF-268 CNS = tested on: SF-268 CNS
COLO 205 colon = tested on: COLO 205 colon
DU-145 prostate = tested on: DU-145 prostate
SK-MEL-2 melanoma = tested on: SK-MEL-2 melanoma
OVCAR-3 ovarian = tested on: OVCAR-3 ovarian
786-0 renal = tested on: 786-0 renal
MALME-3M melanoma = tested on: MALME-3M melanoma
SF-539 CNS = tested on: SF-539 CNS
KM12 colon = tested on: KM12 colon
EKVX NSCLC = tested on: EKVX NSCLC
UACC-257 melanoma = tested on: UACC-257 melanoma
HCT-15 colon = tested on: HCT-15 colon
SK-MEL-28 melanoma = tested on: SK-MEL-28 melanoma
SK-OV-3 ovarian = tested on: SK-OV-3 ovarian
HT29 colon = tested on: HT29 colon
NCI-H226 lung = tested on: NCI-H226 lung

COc1ccc(C(=O)c2cc(OC)c(OC)c(OC)c2OC)cc1O
8.96 µM: TGI (SF-539 CNS)
7.09 µM: TGI (NCI/ADR-RES ovarian)
7.44 µM: TGI (NCI-H522 lung)
inactive: GI50 (CAKI-1 renal) 2.21 µM | GI50 (HCT-116 colon) 3.98 µM | GI50 (T-47D breast) 4.64 µM | GI50 (BT-549 breast) 5.52 µM | GI50 (SF-295 CNS) 1.94 µM | GI50 (NCI/ADR-RES ovarian) 1.97 µM | GI50 (A498 renal) 6.31 µM | GI50 (NCI-H23 lung) 3.71 µM | GI50 (OVCAR-4 ovarian) 6.14 µM | GI50 (SR leukemia) 0.61 µM | GI50 (TK-10 renal) 52.8 µM | GI50 (LOX IMVI melanoma) 4.95 µM | GI50 (MDA-MB-231 breast) 5.82 µM | GI50 (IGROV1 ovarian) 7.5 µM | GI50 (OVCAR-5 ovarian) 17.5 µM | GI50 (UO-31 renal) 5.02 µM | GI50 (SN12C renal) 6.64 µM | GI50 (OVCAR-8 ovarian) 4.06 µM | GI50 (SW-620 colon) 2.99 µM | GI50 (SNB-19 CNS) 4.49 µM | GI50 (SK-MEL-5 melanoma) 2.93 µM | GI50 (A549 NSCLC) 5.4 µM | GI50 (U251 CNS) 3.61 µM | GI50 (HCC-2998 colon) 6.15 µM | GI50 (ACHN renal) 8.94 µM | GI50 (HL-60(TB) leukemia) 2.77 µM | GI50 (PC-3 prostate) 4.06 µM | GI50 (SNB-75 CNS) 1.69 µM | GI50 (MCF7 breast) 3.83 µM | GI50 (HS 578T breast) 3.41 µM | GI50 (M14 melanoma) 3.1 µM | GI50 (HOP-62 NSCLC) 4.14 µM | GI50 (UACC-62 melanoma) 4.3 µM | GI50 (NCI-H460 lung) 3.59 µM | GI50 (HOP-92 NSCLC) 4.73 µM | GI50 (MOLT-4 leukemia) 4.56 µM | GI50 (NCI-H522 lung) 2.37 µM | GI50 (SF-268 CNS) 4.19 µM | GI50 (COLO 205 colon) 8.27 µM | GI50 (DU-145 prostate) 4.64 µM | GI50 (SK-MEL-2 melanoma) 4.28 µM | GI50 (OVCAR-3 ovarian) 2.83 µM | GI50 (786-0 renal) 4.35 µM | GI50 (MALME-3M melanoma) 4.49 µM | GI50 (SF-539 CNS) 3.05 µM | GI50 (KM12 colon) 2.91 µM | GI50 (EKVX NSCLC) 28.6 µM | GI50 (UACC-257 melanoma) 4.75 µM | GI50 (HCT-15 colon) 3.48 µM | GI50 (SK-MEL-28 melanoma) 6.42 µM | GI50 (SK-OV-3 ovarian) 3.33 µM | GI50 (HT29 colon) 3.8 µM | GI50 (NCI-H226 lung) 20.5 µM
5.77 µM: TGI (SNB-75 CNS)
6.28 µM: TGI (CAKI-1 renal)
90.1 µM: TGI (SK-OV-3 ovarian)
34.3 µM: TGI (COLO 205 colon)
5.18 µM: TGI (SF-295 CNS)
65.1 µM: TGI (HCC-2998 colon)
> 100 µM: TGI (HCT-116 colon) | TGI (T-47D breast) | TGI (BT-549 breast) | TGI (A498 renal) | TGI (NCI-H23 lung) | TGI (OVCAR-4 ovarian) | TGI (SR leukemia) | TGI (TK-10 renal) | TGI (LOX IMVI melanoma) | TGI (MDA-MB-231 breast) | TGI (IGROV1 ovarian) | TGI (OVCAR-5 ovarian) | TGI (UO-31 renal) | TGI (SN12C renal) | TGI (OVCAR-8 ovarian) | TGI (SW-620 colon) | TGI (SNB-19 CNS) | TGI (SK-MEL-5 melanoma) | TGI (A549 NSCLC) | TGI (U251 CNS) | TGI (ACHN renal) | TGI (PC-3 prostate) | TGI (MCF7 breast) | TGI (HS 578T breast) | TGI (M14 melanoma) | TGI (HOP-62 NSCLC) | TGI (UACC-62 melanoma) | TGI (NCI-H460 lung) | TGI (HOP-92 NSCLC) | TGI (MOLT-4 leukemia) | TGI (SF-268 CNS) | TGI (DU-145 prostate) | TGI (SK-MEL-2 melanoma) | TGI (786-0 renal) | TGI (MALME-3M melanoma) | TGI (KM12 colon) | TGI (EKVX NSCLC) | TGI (UACC-257 melanoma) | TGI (HCT-15 colon) | TGI (SK-MEL-28 melanoma) | TGI (HT29 colon) | TGI (NCI-H226 lung)
7.65 µM: TGI (OVCAR-3 ovarian)
9.82 µM: TGI (HL-60(TB) leukemia)
